Reference: PubChem BioAssay (NCI)
“And” between values parts separate entries of the source, which are not always exact repeats. Identical values can stand only once.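 Briefly, cells in 96-well plates were exposed to five compound concentrations for 48 h, and endpoints were estimated by linear interpolation. Abbreviation: GI50, concentration required for 50% inhibition of growth. TGI is the concentration that stops growth completely.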

Legend:
Assay in all cases: NCI anticancer screen, dose series, 48 h
M14 melanoma = tested on: M14 melanoma
HCT-116 colon = tested on: HCT-116 colon
SW-620 colon = tested on: SW-620 colon
CCRF-CEM leukemia = tested on: CCRF-CEM leukemia
TK-10 renal = tested on: TK-10 renal
SNB-75 CNS = tested on: SNB-75 CNS
OVCAR-4 ovarian = tested on: OVCAR-4 ovarian
OVCAR-5 ovarian = tested on: OVCAR-5 ovarian
SK-MEL-2 melanoma = tested on: SK-MEL-2 melanoma
IGROV1 ovarian = tested on: IGROV1 ovarian

Structure (SMILES) | TGI (M14 melanoma) | TGI (HCT-116 colon) [µM] | TGI (SW-620 colon) [µM] | TGI (CCRF-CEM leukemia) [µM] | TGI (TK-10 renal) [µM] | TGI (SNB-75 CNS) [µM] | TGI (OVCAR-4 ovarian) [µM] | TGI (OVCAR-5 ovarian) [µM] | TGI (SK-MEL-2 melanoma) [µM] | TGI (IGROV1 ovarian) [µM] | GI50 (M14 melanoma) [µM] | GI50 (HCT-116 colon) [µM] | GI50 (SW-620 colon) [µM] | GI50 (CCRF-CEM leukemia) [µM] | GI50 (TK-10 renal) [µM] | GI50 (SNB-75 CNS) [µM] | GI50 (OVCAR-4 ovarian) [µM] | GI50 (OVCAR-5 ovarian) [µM] | GI50 (SK-MEL-2 melanoma) [µM] | GI50 (IGROV1 ovarian) [µM]
C#CCNC(=O)NCCCCC(NC(=O)OCc1ccccc1)C(=O)OCc1ccccc1 (stereo not drawn) | > 100 µM | > 100 | > 100 | 41.3 | > 100 | > 100 | > 100 | > 100 | > 100 | > 100 |  |  |  |  |  |  |  |  |  | 
C=C/C(C)=C/C[C@]1(C)[C@H](C)[C@@H](OC(=O)CCC)[C@H](O)[C@@]23C(=C[C@H](OC)C[C@@H]12)[C@@H](OC(=O)CCC)O[C@H]3OC(C)=O | 2.55 µM | 1.96 | 1.21 | 1.66 | 0.411 | 2.47 | 1.34 | 2.54 | 2.09 | 3.39 | 0.881 | 0.495 | 0.333 | 0.382 | 0.181 | 1.21 | 0.351 | 0.576 | 0.549 | 1.53
O=S1(=O)N(Cc2ccccc2)[C@@H](Cc2ccccc2)[C@H](O)[C@H](O)[C@H](Cc2ccccc2)N1Cc1ccccc1 | 6.07 µM | 5.05 | 7.12 | > 20 | 8.38 | 7.28 | 7.26 | 9.1 | 5.76 | 7.24 | 3.04 | 2.43 | 3.18 | 5.96 | 3.77 | 2.31 | 2.72 | 3.57 | 2.8 | 3.57
O=C(Nc1ccc(F)cc1F)c1cc(Cl)ccc1O | 4.18 µM | 3.31 | 18.7 | 18.1 | 31.8 | 3.79 | > 100 | > 100 | 4.93 | > 100 | 0.446 | 1.23 | 2.61 | 3.04 | 5.53 | 1.09 | 0.636 | 4.4 | 1.16 | 1.49
NS(=O)(=O)c1ccc(N2N=C3c4ccccc4CC3C2c2cccs2)cc1 (stereo not drawn) | > 100 µM | 25 | > 100 | > 100 | 34.1 | > 100 | > 100 | > 100 | > 100 | 89.9 | 26 | 10.7 | 35.4 | 31.8 | 13.2 | 31.1 | > 100 | 26.6 | > 100 | 30
O=C(O)/C=C\C(=O)Nc1ccccn1 | > 100 µM | > 100 | > 100 | > 100 |  | > 100 | > 100 | > 100 | > 100 | > 100 |  |  |  |  |  |  |  |  |  | 
CCc1ccccc1NC(=O)/C=C/c1ccccc1 | > 100 µM | > 100 | > 100 | > 100 | > 100 | > 100 | > 100 | > 100 | > 100 |  |  |  |  |  |  |  |  |  |  | 
NC(=O)[C@@H](CC1CC1)[C@@H](CCC(F)(F)F)C(=O)N[C@H]1N=C(c2ccccc2)c2cccc(F)c2NC1=O | > 100 µM | > 100 | > 100 |  | > 100 | > 100 | > 100 | > 100 | > 100 | > 100 | > 100 | > 100 | > 100 |  | > 100 | 16.3 | 54.9 | > 100 | > 100 | 31.7
C[Si](C)(C)C(CCCCSc1ccccc1)(Sc1ccccc1)Sc1ccccc1 |  | > 100 | > 100 | > 100 | > 100 | > 100 | > 100 |  | > 100 |  |  |  |  |  |  |  |  |  |  | 
Cc1c(C(=O)/C=C/C=C/c2ccccc2)[n+](=O)c2ccccc2n1[O-] | 45.9 µM |  | > 100 | > 100 | > 100 | > 100 | > 100 | > 100 | 91.3 | 65.5 |  |  |  |  |  |  |  |  |  | 
c1cc(-c2nnc(SSc3ncnc4nc[nH]c34)o2)ccn1 | > 100 µM | > 100 | > 100 | > 100 | > 100 | > 100 | > 100 | > 100 |  |  | 0.405 | 2 | 3.38 | 1.24 | 0.487 | 0.672 | 0.519 | 3.1 |  | 
CN1CCN(Cc2ccc(NC(=O)c3cncc(C#Cc4cnc(N)cc4C#N)c3)cc2C(F)(F)F)CC1 | 3.86 µM | 9.85 | 11.4 | 42.7 | 17.5 | 19.8 |  | 14.2 | 3.44 | 5.62 | 0.623 | 1.43 | 2.92 | 3.4 | 4.92 | 5.92 |  | 2.76 | 1.15 | 1.16
Clc1cccc(N2CCN(CCCN3CCc4c([nH]c5ccccc45)C3c3cccnc3)CC2)c1 (stereo not drawn) | 4.96 µM and 5.78 µM | 24.9 | 38.1 | > 100 |  | 26.7 | 25.1 | 23.9 | 24.3 | > 100 | 2.47 | 6.97 |  | 11.9 |  |  |  | 8.66 |  | 
COC(=O)C1C(=O)CC2CCCCC21 (stereo not drawn) | > 100 µM | > 100 | > 100 | > 100 | > 100 | > 100 | > 100 |  | > 100 | > 100 |  |  |  |  |  |  |  |  |  | 
COc1ccc(NC(=O)/C=C(C)/C=C/C=C(C)/C=C/C2=C(C)CCCC2(C)C)cc1 |  | 6.99 | 8.43 | 4.67 | 58.2 | 18.5 | 19 | 30.7 | 26.2 |  |  | 2.43 | 2.98 | 2.05 | 37.5 | 4.5 | 5.85 | 15.9 | 13.3 | 
O=C(O)c1cc(=O)c2c([nH]c3ccccc32)s1 | > 100 µM |  | > 100 | > 100 | > 100 | > 100 | > 100 | > 100 | > 100 | > 100 |  |  |  |  |  |  |  |  |  | 
